This is an account of results in ChEMBL document CHEMBL1914304 (J Med Chem, 2011).

One series deals with HepG2. The series is described as follows: Cytotoxicity against human HepG2 cells after 72 hrs by luminescence assay. It is filed as cell-based. The settings on record: hepg2, 72 h.
Series [1] is described as follows: Selectivity ratio of EC50 for human HepG2 cells to EC50 for Plasmodium falciparum.
The subject of another series is BJ. The series is described as follows: Cytotoxicity against human BJ cells after 72 hrs by luminescence assay. It is filed as cell-based.
For the next series, the system named is Raji. As to the kind of experiment: Cytotoxicity against human Raji cells after 72 hrs by luminescence assay. It is filed as cell-based.
For a further series, the system named is HEK293. The series is described as follows: Cytotoxicity against human HEK293 cells after 72 hrs by luminescence assay. It is filed as cell-based. The settings on record: hek293, 72 h.

Some results are limits rather than exact numbers.

As for `Cl.O=C(CCc1ccccc1)c1ccccc1OCC(O)CN1CCN(c2ccc(F)cc2)CC1` (racemic), the Activity result in the series on HepG2, with BJ, in the series on Raji and in the series with HEK293 was “Non-toxic” throughout. Moreover, the selectivity ratio in series [1] was over 10.
For the compound `Cl.O=C(CCc1ccccc1)c1ccccc1OCC(O)CN1CCN(c2ccc([N+](=O)[O-])cc2)CC1` (racemic), the Activity result in the series on HepG2, in the series on BJ, in the series with Raji and in the series on HEK293 was “Non-toxic” each time. For the same compound, the selectivity ratio in series [1] is over 10.
Consider `Cl.Nc1ccc(N2CCN(CC(O)COc3ccccc3C(=O)CCc3ccccc3)CC2)cc1` (racemic), for which the Activity entry in the series with HepG2, in the series on BJ, in the series with Raji and in the series with HEK293 was “Non-toxic” each time. In addition, in series [1], the selectivity ratio was over 10.
For the compound `Cl.O=C(CCc1ccccc1)c1ccccc1OCC(O)CN1CCN(c2ccc(O)cc2)CC1` (racemic), the Activity entry with HepG2, in the series with BJ, in the series with Raji and in the series on HEK293 was “Non-toxic” in each case. Moreover, the selectivity ratio in series [1] is over 10.
Regarding `Cl.O=C(CCc1ccccc1)c1ccccc1OCC(O)CN1CCN(c2ccc(C(F)(F)F)cc2)CC1` (racemic), the Activity entry with HepG2, with BJ, in the series on Raji and in the series on HEK293 was “Non-toxic” throughout. In addition, the selectivity ratio in series [1] is over 10.
Consider `Cl.O=C(CCc1ccccc1)c1ccccc1OCC(O)CN1CCN(C(=O)c2ccccc2)CC1` (racemic), for which the Activity result in the series with HepG2, in the series on BJ, in the series on Raji and in the series with HEK293 was “Non-toxic” each time. For the same compound, the selectivity ratio in series [1] was over 10.
On to `CN1CCN(CC(O)COc2ccccc2C(=O)CCc2ccccc2)CC1.Cl` (racemic), for which the Activity entry in the series on HepG2, in the series with BJ, with Raji and in the series on HEK293 was “Non-toxic” each time. The selectivity ratio in series [1] was over 10.
For the compound `CCN1CCN(CC(O)COc2ccccc2C(=O)CCc2ccccc2)CC1.Cl` (racemic), the Activity entry with HepG2, with BJ, with Raji and with HEK293 was “Non-toxic” in each case. The selectivity ratio in series [1] is over 10.
Consider `Cl.O=C(CCc1ccccc1)c1ccccc1OCC(O)CN1CCOCC1` (racemic), for which the Activity result in the series with HepG2, in the series on BJ, in the series with Raji and with HEK293 was “Non-toxic” in each case. Also, the selectivity ratio in series [1] was over 10.
`Cc1cccc([N+]2(c3ccccc3)CCN(CC(O)COc3ccccc3C(=O)CCc3ccc(F)cc3)CC2)c1.[Cl-]` (racemic): the Activity entry with HepG2, in the series on BJ, with Raji and with HEK293 was “Non-toxic” in each case. Further, the selectivity ratio in series [1] is over 10.
Regarding `Cl.O=C(CCc1ccc(F)cc1)c1ccccc1OCC(O)CN1CCCCC1` (racemic), the Activity result in the series with HepG2, in the series with BJ, in the series on Raji and in the series with HEK293 was “Non-toxic” throughout. Further, the selectivity ratio in series [1] is over 10.
Turning to `Cl.O=C(CCc1ccc(F)cc1)c1ccccc1OCC(O)CN1CCC(c2ccccc2)CC1` (racemic), the Activity result in the series with HepG2, with BJ, in the series on Raji and in the series on HEK293 was “Non-toxic” each time. The selectivity ratio in series [1] is over 10.
Turning to `Cl.O=C(CCc1ccc(F)cc1)c1ccccc1OCC(O)CN1CCC(Cc2ccccc2)CC1` (racemic), the Activity result in the series on HepG2, with BJ, with Raji and with HEK293 was “Non-toxic” each time. Besides, the selectivity ratio in series [1] was over 10.
In the case of `Cl.O=C(CCc1ccc(F)cc1)c1ccccc1OCC(O)CN1CCC(c2ccc(Cl)cc2)CC1` (racemic), the Activity entry in the series on HepG2, in the series with BJ, in the series on Raji and in the series on HEK293 was “Non-toxic” in each case. For the same compound, in series [1], the selectivity ratio was over 10.
Turning to `Cl.O=C(CCc1ccc(F)cc1)c1ccccc1OCC(O)CN1CCC(O)(Cc2ccccc2)CC1` (racemic), the Activity result with HepG2, in the series with BJ, in the series with Raji and with HEK293 was “Non-toxic” each time. Further, the selectivity ratio in series [1] was over 10.
With `Cl.O=C(CCc1ccc(F)cc1)c1ccccc1OCC(O)CN1CCC(O)(c2ccc(Cl)cc2)CC1` (racemic), the Activity result in the series with HepG2, in the series with BJ, with Raji and in the series with HEK293 was “Non-toxic” each time. The selectivity ratio in series [1] is over 10.
For `Cl.O=C(CCc1ccc(F)cc1)c1ccccc1OCC(O)CN1CCN(c2ccccc2)CC1` (racemic), the Activity entry in the series on HepG2, in the series with BJ, in the series on Raji and in the series with HEK293 was “Non-toxic” throughout. Moreover, the selectivity ratio in series [1] is over 10.
As to `Cl.O=C(CCc1ccc(F)cc1)c1ccccc1OCC(O)CN1CCN(Cc2ccccc2)CC1` (racemic), the Activity entry in the series with HepG2, in the series with BJ, in the series with Raji and with HEK293 was “Non-toxic” each time. In addition, in series [1], the selectivity ratio is over 10.
Consider `Cc1ccccc1N1CCN(CC(O)COc2ccccc2C(=O)CCc2ccc(F)cc2)CC1.Cl` (racemic), for which the Activity result with HepG2, in the series on BJ, in the series on Raji and with HEK293 was “Non-toxic” in each case. Further, the selectivity ratio in series [1] is over 10.
Take `Cc1cccc(N2CCN(CC(O)COc3ccccc3C(=O)CCc3ccc(F)cc3)CC2)c1.Cl` (racemic): the Activity result in the series with HepG2, in the series on BJ, in the series with Raji and in the series with HEK293 was “Non-toxic” throughout. The selectivity ratio in series [1] was over 10.
In the case of `Cc1ccc(N2CCN(CC(O)COc3ccccc3C(=O)CCc3ccc(F)cc3)CC2)cc1.Cl` (racemic), the Activity result in the series on HepG2, in the series on BJ, in the series with Raji and in the series on HEK293 was “Non-toxic” throughout. In addition, in series [1], the selectivity ratio was over 10.
As for `COc1ccccc1N1CCN(CC(O)COc2ccccc2C(=O)CCc2ccc(F)cc2)CC1.Cl` (racemic), the Activity entry in the series on HepG2, in the series on BJ, with Raji and with HEK293 was “Non-toxic” throughout. Also, the selectivity ratio in series [1] was over 10.
